Measurements published in US9944602B2, “Piperidinone herbicides” (E. I. DU PONT DE NEMOURS AND COMPANY, priority 2014, dated 2018).

Tests used:
Assay type in all cases: in vivo
[1] = system: galium (catchweed bedstraw, Galium aparine); assay: Test C postemergence galium; details: Table C, scale 0 to 100
Description: (§1) Seeds of plant species selected from blackgrass (Alopecurus myosuroides), ryegrass, Italian (Italian ryegrass, Lolium multiflorum), wheat (winter wheat, Triticum aestivum), galium (catchweed bedstraw, Galium aparine), corn (Zea mays), crabgrass, large (large crabgrass, Digitaria sanguinalis), foxtail, giant (giant foxtail, Setaria faberii), johnsongrass (Sorghum halepense), lambsquarters (Chenopodium album), morningglory (Ipomoea coccinea), yellow (yellow nutsedge, Cyperus esculentus), pigweed (Amaranthus retroflexus), ragweed (common ragweed, Ambrosia elatior), soybean (Glycine max), barnyardgrass (Echinochloa crus-galli), oilseed rape (Brassica napus), waterhemp (common waterhemp, Amaranthus rudis), and velvetleaf (Abutilon theophrasti) were planted into a blend of loam soil and sand and treated preemergence with test chemicals formulated in a non-phytotoxic solvent mixture which included a surfactant. At the same time, plants selected from these crop and weed species and also chickweed (common chickweed, Stellaria media), kochia (Kochia scoparia), and oat, wild (wild oat, Avena fatua) were planted in pots containing Sunshine Redi-Earth® planting medium comprising spaghnum peat moss, vermiculite, starter nutrients and dolomitic limestone and treated with postemergence applications of test chemicals formulated in the same manner. Plants ranged in height from 2 to 18 cm (1- to 4-leaf stage) for postemergence treatments. Treated plants and controls were maintained in a greenhouse for 13 to 15 days, after which time all species were compared to controls and visually evaluated. Plant response ratings, summarized in Table C, are based on a scale of 0 to 100 where 0 is no effect and 100 is complete control. A dash (-) response means no test result.

[2] = system: crabgrass, large (large crabgrass, Digitaria sanguinalis); assay: Test C postemergence crabgrass, large; details: Table C, scale 0 to 100
Description: as §1

[3] = system: chickweed (common chickweed, Stellaria media); assay: Test C postemergence chickweed; details: Table C, scale 0 to 100
Description: as §1

[4] = system: foxtail, giant (giant foxtail, Setaria faberii); assay: Test C preemergence foxtail, giant; details: Table C, scale 0 to 100
Description: as §1

[5] = system: morningglory (Ipomoea spp.); assay: Test A preemergence morningglory; details: 0 to 100 scale, 0 no effect, 100 complete control
Description: (§2) Seeds of plant species selected from barnyardgrass (Echinochloa crus-galli), kochia (Kochia scoparia), ragweed (common ragweed, Ambrosia elatior), ryegrass, Italian (Italian ryegrass, Lolium multiflorum), crabgrass, large (large crabgrass, Digitaria sanguinalis), foxtail, giant (giant foxtail, Setaria faberii), morningglory (Ipomoea spp.), pigweed (Amaranthus retroflexus), velvetleaf (Abutilon theophrasti), wheat (Triticum aestivum), and corn (Zea mays) were planted into a blend of loam soil and sand and treated preemergence with a directed soil spray using test chemicals formulated in a non-phytotoxic solvent mixture which included a surfactant.
(§3) At the same time, plants selected from these crop and weed species and also blackgrass (Alopecurus myosuroides), and galium (catchweed bedstraw, Galium aparine) were planted in pots containing the same blend of loam soil and sand and treated with postemergence applications of test chemicals formulated in the same manner. Plants ranged in height from 2 to 10 cm and were in the one- to two-leaf stage for the postemergence treatment. Treated plants and untreated controls were maintained in a greenhouse for approximately 10 d, after which time all treated plants were compared to untreated controls and visually evaluated for injury. Plant response ratings, summarized in Table A, are based on a 0 to 100 scale where 0 is no effect and 100 is complete control. A dash (-) response means no test result.

[6] = system: velvetleaf (Abutilon theophrasti); assay: Test A preemergence velvetleaf; details: 0 to 100 scale, 0 no effect, 100 complete control
Description: as §2, §3

[7] = system: corn (Zea mays); assay: Test A preemergence corn; details: 0 to 100 scale; for Corn plant response rating: 125 g ai/ha, 0 no effect, 100 complete control; for Plant response rating, Corn: 500 g ai/ha, 0 is no effect, 100 is complete control
Description: as §2, §3

How did the Plant response rating ([1]; 31 g ai/ha) turn out when `O=C1NCCC(c2cccc(C(F)(F)F)c2)C1C(=O)Nc1ccccc1Cl` (racemic) [Compound 17] was run?
The Plant response rating was 0.

What about the Plant response rating ([1]; 62 g ai/ha) of the same compound?
The Plant response rating was 0.

What about the Plant response rating ([1]; 125 g ai/ha) of the same compound?
Its Plant response rating is 0.

What about the Plant response rating ([1]; 250 g ai/ha) of the same compound?
The Plant response rating was 0.

What about the Plant response rating ([2]; 31 g ai/ha) of the same compound?
Its Plant response rating is 5.

What about the Plant response rating ([2]; 62 g ai/ha) of the same compound?
The Plant response rating was 20.

What about the Plant response rating ([2]; 125 g ai/ha) of the same compound?
The Plant response rating was 20.

What about the Plant response rating ([2]; 250 g ai/ha) of the same compound?
The Plant response rating was 55.

And the Plant response rating ([3]; 31 g ai/ha)?
The Plant response rating was 0.

And the Plant response rating ([3]; 62 g ai/ha)?
Its Plant response rating is 0.

What about the Plant response rating ([3]; 125 g ai/ha) of the same compound?
The Plant response rating was 0.

What about the Plant response rating ([3]; 250 g ai/ha) of the same compound?
Its Plant response rating is 5.

For `O=C1NCCC(c2cccc(C(F)(F)F)c2)C1C(=O)Nc1ccc(F)c(F)c1F` (racemic) [Compound 28], which Plant response rating ([4]; 31 g ai/ha) is on record?
Its Plant response rating is 60.

And the Plant response rating ([4]; 62 g ai/ha)?
The Plant response rating was 85.

What about the Plant response rating ([4]; 125 g ai/ha) of the same compound?
Its Plant response rating is 95.

And the Plant response rating ([4]; 250 g ai/ha)?
Its Plant response rating is 95.

What does the source list for `O=C1NCCC(c2cccc(C(F)(F)F)c2)C1C(=O)Nc1cccc(F)c1F` (centres unmarked) [Compound 9, N-(2,3-difluorophenyl)-2-oxo-4-[3-(trifluoromethyl)phenyl]-3-piperidinecarboxamide]?
Morningglory plant response rating ([5]; 125 g ai/ha): 0; Morningglory plant response rating ([5]; 500 g ai/ha): 0; Velvetleaf plant response rating ([6]; 125 g ai/ha): 0; Velvetleaf plant response rating ([6]; 500 g ai/ha): 0; Corn plant response rating [7]: 20; Plant response rating, Corn [7]: 70; Plant response rating ([4]; 31 g ai/ha): 90; Plant response rating ([4]; 62 g ai/ha): 95; Plant response rating ([4]; 125 g ai/ha): 95; Plant response rating ([4]; 250 g ai/ha): 98; Plant response rating ([1]; 31 g ai/ha): 0; Plant response rating ([1]; 62 g ai/ha): 0; Plant response rating ([1]; 125 g ai/ha): 0; Plant response rating ([1]; 250 g ai/ha): 40; Plant response rating ([2]; 31 g ai/ha): 0; Plant response rating ([2]; 62 g ai/ha): 35; Plant response rating ([2]; 125 g ai/ha): 75; Plant response rating ([2]; 250 g ai/ha): 75; Plant response rating ([3]; 31 g ai/ha): 0; Plant response rating ([3]; 62 g ai/ha): 0; Plant response rating ([3]; 125 g ai/ha): 0; Plant response rating ([3]; 250 g ai/ha): 5

`O=C1NCCC(c2cccc(C(F)(F)F)c2)C1C(=O)Nc1ccccc1C(F)(F)F` (centres unmarked) [Compound 10, 2-oxo-N-[2-(trifluoromethyl)phenyl)-4-[3-(trifluoromethyl)phenyl]-3-piperidinecarboxamide] was tested. Which “Morningglory plant response rating” value ([5]; 125 g ai/ha) did it give?
Its value is 0.

And the “Morningglory plant response rating” value ([5]; 500 g ai/ha)?
Its value is 0.

And the “Velvetleaf plant response rating” value ([6]; 125 g ai/ha)?
Its value is 0.

And the “Velvetleaf plant response rating” value ([6]; 500 g ai/ha)?
Its value is 0.

What about the “Corn plant response rating” value [7] of the same compound?
Its value is 0.

What about the “Plant response rating, Corn” value [7] of the same compound?
Its value is 0.
